For the test, the system named is L1210 leukemia ip in BDF1 mice, survival T/C. Briefly: NCI In Vivo Anticancer Drug Screen. Data for tumor model L1210 Leukemia (intraperitoneal) in B6D2F1 (BDF1) mice. To be noted: endpoint: mean survival time, higher = longer survival. In short, it runs like this:
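Mice bearing the transplanted tumor received compound or vehicle. Survival of the treated group was divided by that of the vehicle-treated control group to give the ratio.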

Where [1] appears, read: dose: 100.0 mg/kg/injection, schedule: Q04DX003 (ip), vehicle: saline.
Where [2] appears, read: dose: 200.0 mg/kg/injection, schedule: Q04DX003 (ip), vehicle: saline.

Inconclusive results and toxic doses are left out.

Consider `CCC1CN2C(=N1)c1ccccc1-c1cc(Cl)ccc12` (configuration not stated), for which the T/C (dose: 6.25 mg/kg/injection, schedule: Q01DX009 (ip), vehicle: suspension in saline) is 102 % of control; the T/C (dose: 10.0 mg/kg/injection, schedule: Q01DX001 (ip), vehicle: Klucel (hydroxypropylcellulose) (HPC)) was 103 % of control; the T/C (dose: 10.0 mg/kg/injection, schedule: Q01DX009 (ip), vehicle: Klucel (hydroxypropylcellulose) (HPC)) is 90 % of control; the T/C (dose: 12.5 mg/kg/injection, schedule: Q01DX009 (ip), vehicle: suspension in saline) was 102 % of control; the T/C (dose: 20.0 mg/kg/injection, schedule: Q01DX001 (ip), vehicle: Klucel (hydroxypropylcellulose) (HPC)) was 114 % of control; the T/C (dose: 20.0 mg/kg/injection, schedule: Q01DX009 (ip), vehicle: Klucel (hydroxypropylcellulose) (HPC)) was 90 % of control. The T/C by setting is: (dose: 20.0 mg/kg/injection, schedule: Q01DX009 (ip), vehicle: saline) 111 % of control; (dose: 20.0 mg/kg/injection, schedule: Q04DX002 (ip), vehicle: saline) 114 % of control; (dose: 20.0 mg/kg/injection, schedule: Q04DX003 (ip), vehicle: Klucel (hydroxypropylcellulose) (HPC)) 88 % of control; (dose: 25.0 mg/kg/injection, schedule: Q01DX009 (ip), vehicle: suspension in saline) 110 % of control; (dose: 40.0 mg/kg/injection, schedule: Q01DX001 (ip), vehicle: Klucel (hydroxypropylcellulose) (HPC)) 108 % of control; (dose: 40.0 mg/kg/injection, schedule: Q04DX002 (ip), vehicle: saline) 118 % of control. Besides, the T/C is 88 % of control (dose: 40.0 mg/kg/injection, schedule: Q04DX003 (ip), vehicle: Klucel (hydroxypropylcellulose) (HPC)); 188 % of control (dose: 80.0 mg/kg/injection, schedule: Q01DX009 (ip), vehicle: saline); 122 % of control (dose: 80.0 mg/kg/injection, schedule: Q04DX002 (ip), vehicle: saline).

Take `CCN1OCC(C)(C(=O)OC)C1C` (configuration not stated): the T/C by setting is: under setting [1], 102 % of control; under setting [2], 97 % of control; (dose: 400.0 mg/kg/injection, schedule: Q04DX003 (ip), vehicle: saline) 107 % of control.

Take `C=CCNC(=S)NCc1cccc2ccccc12`: the T/C runs as follows: (dose: 100.0 mg/kg/injection, schedule: Q01DX009 (ip), vehicle: Klucel (hydroxypropylcellulose) (HPC)) 98 % of control; (dose: 200.0 mg/kg/injection, schedule: Q01DX009 (ip), vehicle: Klucel (hydroxypropylcellulose) (HPC)) 111 % of control; (dose: 400.0 mg/kg/injection, schedule: Q01DX009 (ip), vehicle: Klucel (hydroxypropylcellulose) (HPC)) 88 % of control.

As for `C=CN1CCCC1=O`, the T/C reads like this: (dose: 100.0 mg/kg/injection, schedule: Q01DX001 (ip), vehicle: acetone) 95 % of control; (dose: 100.0 mg/kg/injection, schedule: Q01DX001 (ip), vehicle: saline) 97 % of control; (dose: 100.0 mg/kg/injection, schedule: Q04DX002 (ip), vehicle: saline) 103 % of control; (dose: 100.0 mg/kg/injection, schedule: Q04DX003 (ip), vehicle: saline with Tween-80) 100 % of control; (dose: 200.0 mg/kg/injection, schedule: Q01DX001 (ip), vehicle: acetone) 95 % of control; (dose: 200.0 mg/kg/injection, schedule: Q01DX001 (ip), vehicle: saline) 92 % of control. In addition, the T/C runs as follows: (dose: 200.0 mg/kg/injection, schedule: Q04DX002 (ip), vehicle: saline) 103 % of control; (dose: 200.0 mg/kg/injection, schedule: Q04DX003 (ip), vehicle: saline with Tween-80) 92 % of control; (dose: 400.0 mg/kg/injection, schedule: Q01DX001 (ip), vehicle: acetone) 93 % of control; (dose: 400.0 mg/kg/injection, schedule: Q04DX002 (ip), vehicle: saline) 103 % of control; (dose: 400.0 mg/kg/injection, schedule: Q04DX003 (ip), vehicle: saline with Tween-80) 92 % of control; (dose: 600.0 mg/kg/injection, schedule: Q01DX001 (ip), vehicle: saline) 100 % of control. Moreover, the T/C (dose: 800.0 mg/kg/injection, schedule: Q01DX001 (ip), vehicle: saline) was 100 % of control; the T/C (dose: 1000.0 mg/kg/injection, schedule: Q01DX001 (ip), vehicle: saline) was 106 % of control; the T/C (dose: 1200.0 mg/kg/injection, schedule: Q01DX001 (ip), vehicle: saline) was 108 % of control; the T/C (dose: 1.9 grams/kg/injection, schedule: Q01DX001 (iv), vehicle: saline) is 98 % of control; the T/C (dose: 1.9 grams/kg/injection, schedule: Q01DX005 (iv), vehicle: saline) was 97 % of control; the T/C (dose: 1.9 grams/kg/injection, schedule: Q04DX003 (iv), vehicle: saline) was 97 % of control. In addition, the T/C was 90 % of control (dose: 3.8 grams/kg/injection, schedule: Q01DX001 (ip), vehicle: saline); 97 % of control (dose: 3.8 grams/kg/injection, schedule: Q01DX001 (iv), vehicle: saline); 100 % of control (dose: 3.8 grams/kg/injection, schedule: Q01DX005 (ip), vehicle: saline); 96 % of control (dose: 3.8 grams/kg/injection, schedule: Q01DX005 (iv), vehicle: saline); 91 % of control (dose: 3.8 grams/kg/injection, schedule: Q01DX009 (ip), vehicle: saline); 97 % of control (dose: 3.8 grams/kg/injection, schedule: Q03HX008 (ip), vehicle: saline). For the same compound, the T/C is 98 % of control (dose: 3.8 grams/kg/injection, schedule: Q03HX016 (ip), vehicle: saline); 101 % of control (dose: 3.8 grams/kg/injection, schedule: Q03HX024 (ip), vehicle: saline); 101 % of control (dose: 3.8 grams/kg/injection, schedule: Q04DX003 (ip), vehicle: saline); 94 % of control (dose: 3.8 grams/kg/injection, schedule: Q04DX003 (iv), vehicle: saline); 97 % of control (dose: 3.8 grams/kg/injection, schedule: Q08DX002 (ip), vehicle: saline); 93 % of control (dose: 7.5 grams/kg/injection, schedule: Q01DX001 (ip), vehicle: saline). Besides, the T/C runs as follows: (dose: 7.5 grams/kg/injection, schedule: Q01DX001 (iv), vehicle: saline) 97 % of control; (dose: 7.5 grams/kg/injection, schedule: Q01DX005 (ip), vehicle: saline) 103 % of control; (dose: 7.5 grams/kg/injection, schedule: Q01DX005 (iv), vehicle: saline) 93 % of control; (dose: 7.5 grams/kg/injection, schedule: Q01DX009 (ip), vehicle: saline) 97 % of control; (dose: 7.5 grams/kg/injection, schedule: Q03HX008 (ip), vehicle: saline) 96 % of control; (dose: 7.5 grams/kg/injection, schedule: Q03HX016 (ip), vehicle: saline) 95 % of control. Also, the T/C is, setting by setting: (dose: 7.5 grams/kg/injection, schedule: Q03HX024 (ip), vehicle: saline) 103 % of control; (dose: 7.5 grams/kg/injection, schedule: Q04DX003 (ip), vehicle: saline) 98 % of control; (dose: 7.5 grams/kg/injection, schedule: Q04DX003 (iv), vehicle: saline) 92 % of control; (dose: 7.5 grams/kg/injection, schedule: Q08DX002 (ip), vehicle: saline) 98 % of control; (dose: 15.0 grams/kg/injection, schedule: Q01DX001 (ip), vehicle: saline) 88 % of control; (dose: 15.0 grams/kg/injection, schedule: Q01DX005 (ip), vehicle: saline) 102 % of control. In addition, the T/C is 96 % of control (dose: 15.0 grams/kg/injection, schedule: Q01DX009 (ip), vehicle: saline); 95 % of control (dose: 15.0 grams/kg/injection, schedule: Q04DX003 (ip), vehicle: saline); 94 % of control (dose: 15.0 grams/kg/injection, schedule: Q08DX002 (ip), vehicle: saline).

For `COc1cc(C)cc(C(=O)O)c1O`, the T/C (dose: 200.0 mg/kg/injection, schedule: Q01DX001 (ip), vehicle: carboxymethylcellulose (CMC)) is 90 % of control.

With `CC(=O)NN=C(C)C`, the T/C by setting is: (dose: 25.0 mg/kg/injection, schedule: Q01DX009 (ip), vehicle: saline) 102 % of control; (dose: 50.0 mg/kg/injection, schedule: Q01DX009 (ip), vehicle: saline) 111 % of control; (dose: 50.0 mg/kg/injection, schedule: Q04DX003 (ip), vehicle: saline) 99 % of control; under setting [1], 99 % of control; under setting [2], 99 % of control.

The values above are taken from PubChem BioAssay AID248 (DTP/NCI, 2004).
